According to the OPERA property sets (Mansouri et al. 2018):

conditions: not given

Compound	boiling point [°C]	melting point [°C]	log10 Koc (L/kg)	log10 vapour pressure (mmHg)	log10 Henry constant (atm·m³/mol)	ready biodegradability	log10 biodegradation half-life (days)
C=CC=CC#N	136	-60	–	–	–	–	–
CCOC(=O)Cc1[nH]nc2ccc(Cl)cc12	–	77	–	–	–	–	–
Cc1cc(C)[nH]n1	218	108	–	–	–	–	–
NC(=S)c1c(Cl)cccc1Cl	–	152	2.26	-6	–	–	–
CCCCCCCC/C=C\CCCCCCCC(=O)[O-].[Na+]	–	234	–	–	–	–	–
Nc1cccc([N+](=O)[O-])c1N	–	158	–	–	–	–	–
CC(=O)Oc1ccccc1C(=O)Oc1ccccc1	–	96	–	–	–	–	–
CC(=O)c1cc(C)ccc1O	210	50	–	–	–	–	–
CC(C)CC[N+](=O)[O-]	164	97	–	–	–	–	–
COc1ccc(C(O)(c2cncnc2)C2CC2)cc1 (stereo unspecified)	–	110	2.08	-6.7	-10.8	–	–
Nc1ccn([C@@H]2O[C@H](CO)[C@@H](O)[C@@H]2O)c(=O)n1	–	212	–	–	–	–	–
c1ccc2c(c1)CCCO2	–	215	–	–	–	–	–
O=C1C=CC(=O)C=C1	–	116	–	-1.05	–	–	–
CCCCC(N)=O	225	106	–	–	–	–	–
CCCC(CC)c1ccccc1 (stereo unspecified)	209	-55.4	–	–	–	–	–
CCCCCCCCCCCCCCCCCC(=O)OCCCCC	–	30	–	–	–	–	–
C[C@@H]1C=Cc2ccccc21	199	–	–	–	–	–	–
O=C(Oc1ccccc1C(=O)O)c1ccccc1O	–	147	–	–	–	–	–
COC1[C@@H](O[C@@H]2O[C@H](C)[C@@H](O[C@H]3C[C@@](C)(O)[C@H](OC(=O)CC(C)C)[C@H](C)O3)[C@H](N(C)C)[C@H]2O)[C@@H](CC=O)C[C@@H](C)[C@@H](O)C=CC=CC[C@@H](C)OC(=O)C[C@H]1OC(C)=O (stereo partly specified)	–	132	–	–	–	–	–
Cc1ccc(N)c(N)c1	265	89.5	–	-3.2	–	–	–
COc1cc2c(c(O)c1OC)C(C)N(C)CC2 (stereo unspecified)	–	112	–	–	–	–	–
C1CNCCN1	146	–	–	-0.796	–	not readily biodegradable	–
FC(F)(F)c1nc(C(F)(F)F)nc(C(F)(F)F)n1	95.5	-24.8	–	–	–	–	–
COP(=S)(OC)Oc1ccc(S(=O)(=O)N(C)C)cc1	–	53	–	–	–	readily biodegradable	–

Compound	boiling point [°C]	melting point [°C]	log10 Koc (L/kg)	log10 vapour pressure (mmHg)	log10 Henry constant (atm·m³/mol)	ready biodegradability	log10 biodegradation half-life (days)
O=S(=O)(Oc1ccc(Cl)cc1)c1ccc(Cl)cc1	–	86.5	–	–	–	not readily biodegradable	–
c1ccc(C2(N3CCCCC3)CCCCC2)cc1	–	46.5	–	–	–	–	–
COC(=O)c1ccc(N)cc1	–	110	–	–	–	–	–
CCCCN=C=O	115	–	–	1.25	–	–	–
CC(C)(C)c1cc([N+](=O)[O-])c(O)c([N+](=O)[O-])c1	–	95	–	–	–	–	–
CC(C)=CC=O	134	–	–	–	–	–	–
CC1(C)C2CC3OC3(C)C1C2 (stereo unspecified)	185	–	–	-0.0872	–	–	–
CCOC(=O)C=CC(=O)O	–	70	–	–	–	–	–
CC/C=C/C(C)C	85.9	-142	–	–	–	–	–
CC(=O)n1ccnc1	–	102	–	–	–	–	–
O=C(O)CCCc1ccccc1	290	52	–	–	–	–	–
C[C@]12CCC(=O)C=C1CC[C@@H]1[C@@H]2C(=O)C[C@@]2(C)[C@H]1CC[C@]2(O)C(=O)CO	–	222	–	–	–	–	–
c1ccc2sncc2c1	220	38	–	–	–	–	–
N#Cc1ccccc1Cl	232	46.3	–	–	–	not readily biodegradable	–
CC(C)C(C)(C)O	118	-14	–	0.505	–	–	–
C=CCCCCCCCCCCC=C	–	–	–	–	–	–	1.11
O=C(O)[C@H]1CC[C@H]1C(=O)O	–	131	–	–	–	–	–
CN(C)c1ccccc1	193	2.5	2.26	-0.155	–	not readily biodegradable	–
CCCOC(=O)c1cc(O)c(O)c(O)c1	–	130	–	–	–	–	–
c1ccc2c(c1)cc1c3ccccc3c3cccc4ccc2c1c43	–	234	–	–	–	–	–
CC(C(=O)O)c1cccc(C(=O)c2ccccc2)c1 (stereo unspecified)	–	94	–	–	–	–	–
CCC(C)(CC)C(=O)O	207	–	–	–	–	–	–
Oc1cc(Cl)ccc1Cl	211	59	–	-1.25	–	not readily biodegradable	–

same assay, conditions: fish

Compound	log10 BCF	log10 biotransformation half-life (days)
C1CNCCN1	0.59	–
CN(C)c1ccccc1	0.9	-0.96
Oc1cc(Cl)ccc1Cl	1.01	–
